Cc1cnc(C(=O)O)cn1
solubility (mole fraction)
Settings	273.15 K	278.15 K	283.15 K	288.15 K	293.15 K	298.15 K	303.15 K	308.15 K	313.15 K
in 1,4-dioxane	–	–	–	1.88e-05	2.16e-05	2.48e-05	2.84e-05	3.29e-05	3.84e-05
in 2-butanone	5.8e-06	6.8e-06	8e-06	9.3e-06	1.06e-05	1.21e-05	1.39e-05	1.58e-05	1.79e-05
in acetone	6.7e-06	8e-06	9.3e-06	1.07e-05	1.21e-05	1.39e-05	1.56e-05	1.78e-05	2e-05
in acetonitrile	2.48e-06	2.92e-06	3.44e-06	4.01e-06	4.6e-06	5.34e-06	6.05e-06	6.88e-06	7.79e-06
in ethanol	1.09e-05	1.27e-05	1.49e-05	1.71e-05	1.97e-05	2.25e-05	2.57e-05	2.93e-05	3.33e-05
in ethyl acetate	4.31e-06	5.04e-06	5.82e-06	6.63e-06	7.5e-06	8.4e-06	9.45e-06	1.07e-05	1.2e-05
in isopropanol	7.8e-06	9.1e-06	1.04e-05	1.19e-05	1.36e-05	1.56e-05	1.78e-05	2.03e-05	2.28e-05
in methanol	8.5e-06	1e-05	1.16e-05	1.36e-05	1.56e-05	1.77e-05	2.01e-05	2.29e-05	2.57e-05
in n-butanol	9.4e-06	1.08e-05	1.25e-05	1.43e-05	1.65e-05	1.9e-05	2.19e-05	2.51e-05	2.87e-05
in n-propanol	1e-05	1.17e-05	1.36e-05	1.58e-05	1.82e-05	2.07e-05	2.34e-05	2.68e-05	3.06e-05
in toluene	9.7e-07	1.1e-06	1.25e-06	1.42e-06	1.65e-06	1.89e-06	2.18e-06	2.5e-06	2.89e-06
in water	3.32e-06	3.83e-06	4.46e-06	5.16e-06	5.86e-06	6.74e-06	7.7e-06	8.83e-06	1.01e-05

From BigSolDB 2.1
